Measured values published in ChEMBL document CHEMBL1201862, “PubChem BioAssay data set” (2004).
Calls of active or inactive are those of the source.

What was measured:
[1] = target: T1, Endoribonuclease toxin MazF (Escherichia coli K-12, UniProt P0AE70); assay: SAR analysis of small molecule activators of the MazEF TA System via a fluorescence-based single-stranded RNase assay counterscreen. [Related pubchem assays (depositor defined):AID504720, AID504743]; assay type: functional
T1 sequence (P0AE70 whole entry): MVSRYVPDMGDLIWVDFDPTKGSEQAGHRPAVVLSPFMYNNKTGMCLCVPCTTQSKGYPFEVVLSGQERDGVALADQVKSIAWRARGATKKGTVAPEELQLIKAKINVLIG

MEF = assay: SAR analysis of small molecule cytotoxicity of MazEF TA System activators in embryonic fibroblast (MEF) cells. [Related pubchem assays (depositor defined):AID504720, AID504743]; assay type: functional; settings: Mus musculus
[2] = target: T1, Endoribonuclease toxin MazF; assay: MazEF toxin-antitoxin RNase activation – biochemical, fluorescence, single-stranded RNA substrate, SAR follow-up (AID 588603); assay type: functional
[3] = target: T1, Endoribonuclease toxin MazF; assay: activation of MazEF endoribonuclease cleavage – biochemical, fluorescence, single-stranded RNA substrate, uHTS hits, dose response (AID 588481); assay type: functional
[4] = target: T1, Endoribonuclease toxin MazF; assay: substrate-only fluorescence increase artefacts – biochemical, single-stranded RNase substrate, counter-screen for MazEF activator project, dose response (AID 588502); assay type: functional
HEK293 [5] = assay: cells; assay type: functional, cell-based; settings: Homo sapiens
[6] = target: Nuclear receptor subfamily 0 group B member 1 (Homo sapiens, UniProt P51843); assay: Luminescence-based cell-based high throughput dose response assay for inhibitors of the orphan nuclear receptor subfamily 0, group B, member 1 (DAX1; NR0B1). [Related pubchem assays (depositor defined):AID504766, AID504790]; assay type: functional
Troponin, cardiac muscle = Troponin, cardiac muscle (Homo sapiens, UniProt P19429+P45379+P63316); assay: Fluorescence-based biochemical high throughput dose response assay for activators of the calcium sensitivity of cardiac Regulated Thin Filaments (RTF). [Related pubchem assays (depositor defined):AID493008, AID493018, AID504382, AID504383]; assay type: protein-complex assay
Fibrinogen beta chain [7] = target: T2, Fibrinogen beta chain (Homo sapiens, UniProt P02675); assay: Fluorescence polarization-based biochemical high throughput dose response assay to identify inhibitors that disrupt the binding of a cyclic peptide (Tn7) to the fibrin proteolytic product D-Dimer and fragment E complex [DD(E )].
Insulin-degrading enzyme [8] = target: T3, Insulin-degrading enzyme (Homo sapiens, UniProt P14735); assay: cellular IDE activation of Abeta substrate cleavage – fluorescence polarization, HEK cells, dose response (AID 588439); assay type: functional, cell-based
T3 sequence (P14735 whole entry): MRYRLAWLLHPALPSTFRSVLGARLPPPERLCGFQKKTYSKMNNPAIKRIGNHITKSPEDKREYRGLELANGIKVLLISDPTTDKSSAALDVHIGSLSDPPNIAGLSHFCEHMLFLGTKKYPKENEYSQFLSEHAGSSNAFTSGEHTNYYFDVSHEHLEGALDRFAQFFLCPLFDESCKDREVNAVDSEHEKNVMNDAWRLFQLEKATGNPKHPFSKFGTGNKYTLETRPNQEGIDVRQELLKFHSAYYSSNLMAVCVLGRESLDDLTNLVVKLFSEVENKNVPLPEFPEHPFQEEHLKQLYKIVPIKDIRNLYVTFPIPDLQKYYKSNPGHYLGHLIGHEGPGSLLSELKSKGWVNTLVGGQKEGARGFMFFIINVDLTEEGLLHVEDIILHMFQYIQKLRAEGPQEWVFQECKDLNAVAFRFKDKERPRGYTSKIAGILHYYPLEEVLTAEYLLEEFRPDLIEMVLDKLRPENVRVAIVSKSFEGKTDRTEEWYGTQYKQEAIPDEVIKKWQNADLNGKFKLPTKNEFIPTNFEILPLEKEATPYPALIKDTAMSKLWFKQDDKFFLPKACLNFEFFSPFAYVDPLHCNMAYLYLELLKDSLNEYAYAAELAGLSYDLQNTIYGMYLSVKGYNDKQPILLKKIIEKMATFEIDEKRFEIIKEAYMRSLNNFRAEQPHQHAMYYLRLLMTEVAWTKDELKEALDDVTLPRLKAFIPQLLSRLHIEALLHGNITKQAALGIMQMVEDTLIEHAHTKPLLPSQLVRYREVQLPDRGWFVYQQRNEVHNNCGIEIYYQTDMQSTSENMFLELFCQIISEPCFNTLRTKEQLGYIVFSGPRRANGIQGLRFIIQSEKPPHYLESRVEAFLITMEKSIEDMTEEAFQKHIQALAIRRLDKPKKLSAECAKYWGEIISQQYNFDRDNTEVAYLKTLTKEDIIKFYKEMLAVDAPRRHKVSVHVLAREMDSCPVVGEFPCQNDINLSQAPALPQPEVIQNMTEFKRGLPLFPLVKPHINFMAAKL

[9] = target: UDP-galactopyranose mutase (Mycobacterium tuberculosis, UniProt P9WIQ1); assay: Inhibitors of Mycobacterium tuberculosis UDP-galactopyranose mutase (UGM) enzyme Measured in Biochemical System Using Plate Reader - 2105-02_Inhibitor_Dose_CherryPick_Activity. [Related pubchem assays (depositor defined):AID504439]
HEK293 [10] = assay: membrane integrity loss in HEK cells – cell-based, fluorescence, cytotoxicity control for IDE activator project, dose response (AID 588440); assay type: functional; settings: Homo sapiens;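 also: cytotoxicity by LDH release measuring loss of membrane integrity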
ORF 73 = target: T4, ORF 73 (Human herpesvirus 8, UniProt O40947); assay: KSHV LANA DNA-binding disruption – biochemical, fluorescence polarization, cherry-picked samples, dose response (AID 504725); design: species or system Human gammaherpesvirus 8;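 also: fluorescence polarization of a labeled DNA duplex reporting LANA DNA binding; potency is for inhibitors that block LANA binding to the DNA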
T4 sequence (O40947 whole entry): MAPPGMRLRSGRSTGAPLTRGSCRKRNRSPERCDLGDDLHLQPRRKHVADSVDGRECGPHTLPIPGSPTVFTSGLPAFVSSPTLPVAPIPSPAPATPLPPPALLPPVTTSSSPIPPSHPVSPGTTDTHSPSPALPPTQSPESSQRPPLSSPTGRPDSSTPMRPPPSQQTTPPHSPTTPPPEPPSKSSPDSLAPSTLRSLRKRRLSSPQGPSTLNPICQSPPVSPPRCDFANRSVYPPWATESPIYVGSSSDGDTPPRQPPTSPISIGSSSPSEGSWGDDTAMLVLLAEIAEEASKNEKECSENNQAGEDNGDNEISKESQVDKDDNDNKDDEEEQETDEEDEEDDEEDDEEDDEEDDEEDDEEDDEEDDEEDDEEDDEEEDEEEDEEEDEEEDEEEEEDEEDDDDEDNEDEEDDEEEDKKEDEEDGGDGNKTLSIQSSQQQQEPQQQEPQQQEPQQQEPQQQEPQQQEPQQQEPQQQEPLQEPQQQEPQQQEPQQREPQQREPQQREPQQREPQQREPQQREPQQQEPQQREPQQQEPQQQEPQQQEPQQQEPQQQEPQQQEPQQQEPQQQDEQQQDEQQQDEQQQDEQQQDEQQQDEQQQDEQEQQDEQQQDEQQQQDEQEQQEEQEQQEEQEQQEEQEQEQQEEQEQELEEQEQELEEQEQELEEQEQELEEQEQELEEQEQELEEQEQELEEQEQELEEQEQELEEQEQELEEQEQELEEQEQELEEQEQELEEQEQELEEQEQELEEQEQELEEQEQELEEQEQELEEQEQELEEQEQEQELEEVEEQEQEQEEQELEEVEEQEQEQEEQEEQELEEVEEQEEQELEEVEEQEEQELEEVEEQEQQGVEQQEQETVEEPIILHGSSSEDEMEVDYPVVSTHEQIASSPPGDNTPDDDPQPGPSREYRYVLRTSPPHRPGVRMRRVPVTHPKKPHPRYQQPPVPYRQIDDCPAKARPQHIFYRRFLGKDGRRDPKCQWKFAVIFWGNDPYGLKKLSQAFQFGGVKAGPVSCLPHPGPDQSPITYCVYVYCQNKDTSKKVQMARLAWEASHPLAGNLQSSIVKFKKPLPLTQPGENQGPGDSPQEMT

HEK293 [11] = assay: optical interference in Abeta FP readout, dose response, artefact control for IDE activator project, biochemical, fluorescence polarization (AID 588442); assay type: functional, cell-based; settings: Homo sapiens
Insulin-degrading enzyme [12] = target: T3, Insulin-degrading enzyme; assay: recombinant IDE activation, cell-free – biochemical, fluorescence polarization, counter-screen for IDE activator project, dose response (AID 588681)
Fibrinogen beta chain [13] = target: T2, Fibrinogen beta chain; assay: Fluorescence polarization-based biochemical high throughput dose response assay to identify inhibitors that disrupt the binding of a cyclic peptide (Tn6) to the fibrin proteolytic product D-Dimer and fragment E complex [DD(E )].
Candida albicans = assay: antifungal activity against resistant Candida strain – CaCi-8, fluconazole, Alamar Blue, dry powder, dose response (AID 488807); assay type: functional, organism-based
NIH3T3 = assay: mammalian cell viability counter-check – Alamar Blue, fluconazole, dry powder, cytotoxicity control for antifungal drug resistance project, dose response (AID 488809); assay type: functional, cell-based; settings: Mus musculus
[14] = Fluorescence polarization-based biochemical high throughput dose response assay for activators of the Protein Kinase A-R1A (PKA-R1A) complex. [Related pubchem assays (depositor defined):AID504704, AID504707, AID504799, AID504800]
[15] = Fluorescence polarization-based biochemical high throughput dose response assay for activators of the Protein Kinase A-R2B (PKA-R2B) complex. [Related pubchem assays (depositor defined):AID504700, AID504704, AID504796, AID504797]
[16] = target: Dual specificity protein phosphatase 3 (Homo sapiens, UniProt P51452); assay: SAR VHR1 Fluorescent Assay for In Vitro dose response studies Set 3. [Related pubchem assays (depositor defined):AID1654, AID1661, AID1878]; assay type: functional
Phospholipase A2 = Phospholipase A2 (Homo sapiens, UniProt P04054); assay type: functional;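 also: confirmatory dose-response counterscreen on phospholipase A2, testing hits that came from an ultra-high-throughput screen for ATG4B inhibitors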
Streptokinase A = target: T5, Streptokinase A (Streptococcus pyogenes serotype M1, UniProt P10520); assay: viability-normalized secreted streptokinase activity reduction – plasminogen activation absorbance, OD405, dose response (AID 1914); assay type: functional, Streptococcus pyogenes M1 GAS;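 also: secreted streptokinase activity via plasminogen activation per viability signal from cell pellet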
T5 sequence (P10520 whole entry): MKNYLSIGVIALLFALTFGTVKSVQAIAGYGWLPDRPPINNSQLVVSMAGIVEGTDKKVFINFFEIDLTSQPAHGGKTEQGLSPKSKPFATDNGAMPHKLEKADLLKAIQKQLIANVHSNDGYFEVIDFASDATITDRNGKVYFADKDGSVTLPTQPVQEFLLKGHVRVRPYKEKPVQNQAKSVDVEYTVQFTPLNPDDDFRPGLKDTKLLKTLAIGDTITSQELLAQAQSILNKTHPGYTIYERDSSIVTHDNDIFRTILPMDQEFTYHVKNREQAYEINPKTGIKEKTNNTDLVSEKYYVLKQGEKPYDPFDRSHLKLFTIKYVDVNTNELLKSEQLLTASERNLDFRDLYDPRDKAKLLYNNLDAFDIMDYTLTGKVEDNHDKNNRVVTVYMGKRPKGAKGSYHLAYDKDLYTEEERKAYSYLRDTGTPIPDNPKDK

Cysteine protease ATG4B = Cysteine protease ATG4B (Homo sapiens, UniProt Q9Y4P1); assay type: functional;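 also: Fluorescence-based dose-response confirmation assay measuring inhibition of ATG4B activity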
Streptococcus = assay: GAS UMAA2166 growth inhibition – luminescence, BacTiterGlo, counter-screen for streptokinase expression inhibitor project, dose response (AID 1915); assay type: functional, organism-based;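 also: potency for reduction of bacterial viability or growth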
[17] = test system: Streptococcus sp. 'group A'; assay: Streptococcus pyogenes SK(-)GAS viability under kanamycin – luminescence, BacTiterGlo, confirmation, counter-screen for streptokinase expression inhibitor project, dose response (AID 1900); assay type: functional, organism-based

T2 sequence (P02675 whole entry, the tested form may be a part): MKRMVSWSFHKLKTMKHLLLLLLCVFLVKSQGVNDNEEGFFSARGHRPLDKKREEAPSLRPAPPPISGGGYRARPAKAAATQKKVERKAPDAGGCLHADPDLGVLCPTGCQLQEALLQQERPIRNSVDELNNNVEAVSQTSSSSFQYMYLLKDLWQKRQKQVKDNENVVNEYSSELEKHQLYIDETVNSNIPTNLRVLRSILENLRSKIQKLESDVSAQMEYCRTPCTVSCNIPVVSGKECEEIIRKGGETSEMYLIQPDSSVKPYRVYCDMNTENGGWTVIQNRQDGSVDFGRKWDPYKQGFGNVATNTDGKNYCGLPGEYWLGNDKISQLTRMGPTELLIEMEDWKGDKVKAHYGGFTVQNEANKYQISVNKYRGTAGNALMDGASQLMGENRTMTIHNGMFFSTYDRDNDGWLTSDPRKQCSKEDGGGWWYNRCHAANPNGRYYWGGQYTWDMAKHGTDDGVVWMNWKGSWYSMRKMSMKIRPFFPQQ
Chain of Dual specificity protein phosphatase 3 (P51452 whole entry): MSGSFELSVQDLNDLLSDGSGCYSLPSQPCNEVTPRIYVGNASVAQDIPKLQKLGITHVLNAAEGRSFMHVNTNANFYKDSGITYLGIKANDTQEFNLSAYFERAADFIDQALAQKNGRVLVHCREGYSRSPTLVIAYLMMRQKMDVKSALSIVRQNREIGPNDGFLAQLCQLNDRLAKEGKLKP
Chain of Nuclear receptor subfamily 0 group B member 1 (P51843 whole entry): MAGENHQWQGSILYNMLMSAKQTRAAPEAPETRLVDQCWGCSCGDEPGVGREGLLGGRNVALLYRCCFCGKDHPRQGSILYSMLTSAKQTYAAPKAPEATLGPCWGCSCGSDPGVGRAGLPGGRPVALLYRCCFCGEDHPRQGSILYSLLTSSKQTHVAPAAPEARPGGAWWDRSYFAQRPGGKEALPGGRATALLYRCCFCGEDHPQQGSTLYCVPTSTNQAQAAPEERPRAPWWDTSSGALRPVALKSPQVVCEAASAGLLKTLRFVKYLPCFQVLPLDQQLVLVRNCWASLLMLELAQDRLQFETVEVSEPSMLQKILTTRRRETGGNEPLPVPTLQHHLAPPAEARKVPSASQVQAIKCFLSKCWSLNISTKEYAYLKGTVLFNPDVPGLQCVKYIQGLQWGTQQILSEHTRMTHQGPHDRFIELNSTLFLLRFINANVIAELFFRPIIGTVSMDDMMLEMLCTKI
Chain of Phospholipase A2 (P04054 whole entry): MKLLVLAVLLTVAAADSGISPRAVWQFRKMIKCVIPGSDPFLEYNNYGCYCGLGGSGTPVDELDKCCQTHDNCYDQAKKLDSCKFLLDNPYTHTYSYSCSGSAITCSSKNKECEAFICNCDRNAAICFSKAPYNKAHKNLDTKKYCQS
Chain of Cysteine protease ATG4B (Q9Y4P1 whole entry): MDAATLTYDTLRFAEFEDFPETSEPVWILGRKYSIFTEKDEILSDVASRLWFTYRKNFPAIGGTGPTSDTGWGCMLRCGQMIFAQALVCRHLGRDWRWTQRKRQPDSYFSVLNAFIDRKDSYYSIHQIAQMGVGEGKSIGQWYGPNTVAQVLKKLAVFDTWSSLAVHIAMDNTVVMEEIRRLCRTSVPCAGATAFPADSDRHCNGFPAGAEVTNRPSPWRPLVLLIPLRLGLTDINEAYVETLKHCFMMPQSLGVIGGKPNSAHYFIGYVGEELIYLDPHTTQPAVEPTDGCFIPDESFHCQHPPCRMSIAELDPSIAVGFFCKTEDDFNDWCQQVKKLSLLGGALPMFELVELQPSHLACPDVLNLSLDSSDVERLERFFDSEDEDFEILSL
Chain of UDP-galactopyranose mutase (P9WIQ1 whole entry): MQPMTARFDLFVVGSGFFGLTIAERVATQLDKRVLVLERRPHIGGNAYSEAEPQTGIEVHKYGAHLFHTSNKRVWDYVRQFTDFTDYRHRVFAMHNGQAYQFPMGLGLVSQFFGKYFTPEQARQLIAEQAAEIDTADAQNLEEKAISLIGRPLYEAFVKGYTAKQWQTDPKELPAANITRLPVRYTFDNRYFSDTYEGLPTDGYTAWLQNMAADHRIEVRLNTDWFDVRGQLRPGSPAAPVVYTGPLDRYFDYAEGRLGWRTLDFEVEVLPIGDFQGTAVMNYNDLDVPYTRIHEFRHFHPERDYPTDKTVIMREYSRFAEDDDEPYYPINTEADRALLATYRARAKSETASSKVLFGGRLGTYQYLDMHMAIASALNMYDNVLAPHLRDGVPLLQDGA

CCN1C(C)=C(C)S/C1=C1\SC(=S)N(C2CCCCC2)C1=O
EC50 [1]: > 99 µM (inactive) | CC50 (MEF): > 99 µM (inactive) | EC50 [2]: 22.4 µM (inactive) | EC50 [3]: 29.1 µM (inactive) | EC50 [4]: > 99 µM (inactive)

COc1ccc(N2C(=O)C3C(c4ccc(OC)cc4O)NC(Cc4ccccc4)(C(=O)O)C3C2=O)cc1 (stereo unspecified)
IC50 (HEK293 [5]): > 67.5 µM (inactive) | IC50 [6]: > 67.5 µM (inactive)

Oc1ccc2ccc3cccc[n+]3c2c1
EC50 (Troponin, cardiac muscle): 1.21 µM (active) | IC50 (Fibrinogen beta chain [7]): > 9.26 µM (active) | EC50 (Insulin-degrading enzyme [8]): > 54.7 µM (inactive) | AC50 [9]: 3.84 µM (active) | IC50 (HEK293 [10]): > 89.2 µM (inactive) | AC50 (ORF 73): 1.61 µM (active) | EC50 (HEK293 [11]): > 54.7 µM (inactive) | EC50 (Insulin-degrading enzyme [12]): > 54.7 µM (inactive) | IC50 (Fibrinogen beta chain [13]): > 83.3 µM (inactive)

CC1CCN(C(=O)Cn2c3ccc(F)cc3c3nc4n(c(=O)c32)CCCS4)CC1
AC50 (Candida albicans): 2.96 µM (active) | AC50 (NIH3T3): 41.8 µM (active)

Nc1nc(O)c2nc(Br)n([C@@H]3O[C@@H]4COP(=O)(O)O[C@H]4[C@H]3O)c2n1
EC50 [14]: 7.83 µM (active) | EC50 [15]: 2.15 µM (active)

COc1ccc(C(=O)Nc2cc(C)nn2-c2nc3ccccc3s2)cc1
IC50 [16]: 36.3 µM (active)

COc1cc(/C=C2\S/C(=N\c3ccccc3)N(CCc3c[nH]c4ccccc34)C2=O)ccc1OC(C)C(=O)O (stereo unspecified)
IC50 (Phospholipase A2): 5.47 µM (active) | EC50 (Streptokinase A): 4.12 µM (active) | IC50 (Cysteine protease ATG4B): 8.13 µM (active) | EC50 (Streptococcus): 11.5 µM (active) | EC50 [17]: 0.943 µM (active)
